Source: patent US20100055169A1, “CATIONIC LIPIDS AND USES THEREOF” (ABBOTT LABORATORIES, priority 2008, published 2010)

Test: Particle sizing assay (Zetasizer Nano ZS), in vivo formulations
Type: physicochemical
Settings: lipid:siRNA 25:1
Description: A round bottom flask was submerged into a 65° C. water bath. Citrate buffer (37.5 ml) of pH 4.0 was pipetted into the flask. The solution was stirred by a magnetic stirring bar at a speed of 900 rpm. Both the pH 4.0 citrate buffer and the lipid solution were pre-warmed in the 65° C. water bath for about 3 minutes. A siRNA solution (0.5 ml) was pipetted into the pH 4.0 citrate buffer. The 12.5 ml lipid mixture solution was injected through a 27 gauge needle into the citrate buffer in about 30 seconds. The needle tip was inserted into the solution during the injection. The resulting solution was stirred for 5 minutes at a speed of 900 rpm. The flask was pulled up from the water bath and a 50 ml pH 7.4 PBS buffer was added into the flask. The final solution was further mixed at a speed of 900 rpm for 5 minutes. For the diafiltration process, a dialysis filter (Millipore, 100K, Cat#PXB100C50) was used to remove ethanol in the above solution. When the volume was reduced to 20 ml during the initial diafiltration, 20 ml of pH 7.4 PBS was added to the sample solution. The diafiltration was continued until the volume was reduced to 20 ml. The diafiltration process was repeated 4 times. The volume of the sample solution was reduced to about 12 ml and pH 7.4 PBS was added to make the final volume of 15 ml. The 15 ml solution was filtered sequentially through the 0.45 and 0.22 μm sterile PVDF membrane filters (Millipore) and immediately transferred into a sterile vial.
For measurements of particle sizes and size distributions (PDI), lipid-based particles were prepared as described above. The particle solution (60 μL) was pipetted into a disposable cuvette (UVette, Eppendorf, cat#952010051) and measured in the “General Purpose” mode. Attenuator and position were optimized by the device. Measurements were performed using a Zetasizer Nano ZS (Malvern Instruments) equipped with a 4 mW He—Ne laser at a wavelength of 633 nm at 25° C. Scattered light was detected at a 173° backward scattering angle. The viscosity and refractive index of water at 25° C. was used for data analysis with the Dispersion Technology Software 5.00 (Malvern Instruments).

[1] = in vivo formulation A: Cationic lipid/Example 73/DSPC/Chol 45/10/15/30 wt %
[2] = in vivo formulation B: Cationic lipid/PEG-cholesterol/DSPC/Chol 45/10/15/30 wt %
[3] = in vivo formulation C: Cationic lipid/Pal-PEG-Cera/DSPC/Chol 45/10/15/30 wt %
[4] = in vivo formulation D: Cationic lipid/Example 66/DSPC/Chol 45/10/15/30 wt %
[5] = in vivo formulation E: Cationic lipid/Example 53/DSPC/Chol 45/10/15/30 wt %
[6] = in vivo formulation F: Cationic lipid/Example 54/DSPC/Chol 45/10/15/30 wt %
[7] = in vivo formulation G: Cationic lipid/Example 55/DSPC/Chol 45/10/15/30 wt %
[8] = in vivo formulation H: Cationic lipid/PEG-DMPE/DSPC/Chol 45/10/15/30 wt %
[9] = in vivo formulation J: Cationic lipid/PEG-DSPE/DSPC/Chol 45/10/15/30 wt %
[10] = in vivo formulation K: Cationic lipid/PEG-DMG/DSPC/Chol 45/10/15/30 wt %
[11] = in vivo formulation M: Cationic lipid/PEG-DSG/DSPC/Chol 45/10/15/30 wt %
[12] = in vivo formulation NN: Cationic lipid/Example 74/DSPC/Chol 45/10/15/30 wt %
[13] = in vivo formulation OO: Cationic lipid/Example 75/DSPC/Chol 45/10/15/30 wt %
[14] = in vivo formulation P: Cationic lipid/PEG-DSPE/DOPE/Chol 45/10/15/30 wt %
[15] = in vivo formulation PP: Cationic lipid/Example 73/Chol 45/10/45 wt %
[16] = in vivo formulation Q: Cationic lipid/PEG-DSPE/DOPC/Chol 45/10/15/30 wt %
[17] = in vivo formulation R: Cationic lipid/PEG-DSPE/SPC/Chol 45/10/15/30 wt %

With `CCCCC/C=C\C/C=C\CCCCCCCCOCC(CCN1CCCC1)OCCCCCCCC/C=C\C/C=C\CCCCC` (stereo not shown) [Example 24, 1-{3,4-bis[(9Z,12Z)-octadeca-9,12-dienyloxy]butyl}pyrrolidine] the Size [1] was 96 nm, the “Size distribution (PDI)” value [1] was “(0.06)” and the Size [2] was 327 nm. For the same compound, the “Size distribution (PDI)” value [2] was “(0.198)”, the Size [3] was 141 nm and the “Size distribution (PDI)” value [3] was “(0.026)”. For the same compound, the Size [4] was 164 nm, the “Size distribution (PDI)” value [4] was “(0.104)” and the Size [5] was 169 nm. For the same compound, the “Size distribution (PDI)” value [5] was “(0.163)”, the Size [6] was 152 nm and the “Size distribution (PDI)” value [6] was “(0.08)”. The Size [7] was 164 nm, the “Size distribution (PDI)” value [7] was “(0.104)” and the Size [8] was 168 nm. For the same compound, the “Size distribution (PDI)” value [8] was “(0.007)”, the Size [9] was 119.7 nm and the “Size distribution (PDI)” value [9] was “(0.006)”. The Size [10] was 155 nm, the “Size distribution (PDI)” value [10] was “(0.052)” and the Size [11] was 116.5 nm. The “Size distribution (PDI)” value [11] was “(0.029)”, the Size [12] was 140 nm and the “Size distribution (PDI)” value [12] was “(0.029)”. The Size [13] was 142 nm, the “Size distribution (PDI)” value [13] was “(0.029)” and the Size [14] was 153.7 nm. For the same compound, the “Size distribution (PDI)” value [14] was “(0.061)”, the Size [15] was 108.7 nm and the “Size distribution (PDI)” value [15] was “(0.094)”. For the same compound, the Size [16] was 144.1 nm, the “Size distribution (PDI)” value [16] was “(0.01)” and the Size [17] was 159.6 nm. For the same compound, the “Size distribution (PDI)” value [17] was “(0.036)”.
